Reference: the Kinase Knowledgebase extract (Sharma et al. 2016)

Molecular target: ROCK2 (human) (UniProt O75116)
Assay: Assessment of ROCK2 Kinase Activity by Luciferase Assay

ROCK2 (human), sequence (O75116 whole entry, looked up): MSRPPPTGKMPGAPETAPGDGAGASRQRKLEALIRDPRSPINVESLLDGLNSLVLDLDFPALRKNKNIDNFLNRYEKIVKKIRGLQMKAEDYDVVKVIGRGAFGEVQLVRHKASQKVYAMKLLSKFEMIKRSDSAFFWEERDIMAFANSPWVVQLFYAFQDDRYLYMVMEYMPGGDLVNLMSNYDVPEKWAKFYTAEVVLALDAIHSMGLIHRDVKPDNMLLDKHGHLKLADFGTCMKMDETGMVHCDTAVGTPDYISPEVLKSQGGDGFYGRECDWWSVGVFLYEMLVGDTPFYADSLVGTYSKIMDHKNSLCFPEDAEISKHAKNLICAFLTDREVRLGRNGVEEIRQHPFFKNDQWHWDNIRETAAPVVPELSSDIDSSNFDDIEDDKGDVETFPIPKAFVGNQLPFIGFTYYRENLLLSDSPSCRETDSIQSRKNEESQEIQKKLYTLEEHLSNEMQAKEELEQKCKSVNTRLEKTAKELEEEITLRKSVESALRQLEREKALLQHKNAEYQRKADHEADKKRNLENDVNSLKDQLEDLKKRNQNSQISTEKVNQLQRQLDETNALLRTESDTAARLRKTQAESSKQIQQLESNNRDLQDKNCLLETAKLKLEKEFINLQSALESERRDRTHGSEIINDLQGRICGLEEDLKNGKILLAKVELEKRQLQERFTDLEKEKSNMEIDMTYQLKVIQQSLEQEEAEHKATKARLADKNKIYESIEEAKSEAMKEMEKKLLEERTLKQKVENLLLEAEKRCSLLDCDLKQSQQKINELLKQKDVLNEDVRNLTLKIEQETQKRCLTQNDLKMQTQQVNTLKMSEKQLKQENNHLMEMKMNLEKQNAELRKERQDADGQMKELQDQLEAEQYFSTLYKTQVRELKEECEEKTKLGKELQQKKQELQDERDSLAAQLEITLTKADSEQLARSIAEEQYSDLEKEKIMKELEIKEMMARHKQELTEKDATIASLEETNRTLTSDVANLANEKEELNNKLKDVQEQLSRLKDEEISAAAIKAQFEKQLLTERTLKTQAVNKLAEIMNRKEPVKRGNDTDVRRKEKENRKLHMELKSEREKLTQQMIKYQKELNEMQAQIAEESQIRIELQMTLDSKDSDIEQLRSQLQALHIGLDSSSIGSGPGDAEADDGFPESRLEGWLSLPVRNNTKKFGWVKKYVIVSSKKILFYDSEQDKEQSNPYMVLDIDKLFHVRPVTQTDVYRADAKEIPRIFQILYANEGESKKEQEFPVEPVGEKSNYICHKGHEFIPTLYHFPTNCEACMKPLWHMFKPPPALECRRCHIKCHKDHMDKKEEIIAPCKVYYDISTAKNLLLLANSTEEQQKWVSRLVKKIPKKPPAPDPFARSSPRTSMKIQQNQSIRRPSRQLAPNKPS

Compound | IC50 | Kd
COc1ccc(C(=O)NCc2cccc(C(=O)NCCC3CCCN(C)C3)c2)cc1OC (stereo unspecified) | 0.102 µM | 
COc1ccc(C(=O)NCc2cccc(C(=O)Nc3ccc(CN(C)C)cc3)c2)cc1 | 1.3 µM | 
N#Cc1ccc(NC(=O)NCc2cccc(NC(=O)CCC3CCCNC3)c2)cc1 (stereo unspecified) | 0.11 µM | 
CN(C)Cc1ccc(NC(=O)c2cccc(CNC(=O)Nc3ccc(C#N)c(Cl)c3)c2)cc1 | 0.01 µM | 
COc1ccc(C(=O)NCc2cccc(C(=O)NCC3CCCO3)c2)cc1OC (stereo unspecified) | 1200 µM | 
CN(C)Cc1ccc(NC(=O)c2cccc(CNC(=O)c3ccc(C#N)cc3)c2)cc1 | 1.7 µM | 
CN(C)Cc1ccc(NC(=O)c2cccc(CNC(=O)c3ccc(OC(F)(F)F)c(Cl)c3)c2)cc1 | 0.67 µM | 
N#Cc1ccc(NC(=O)NCc2cccc(C(=O)Nc3ccc(CN)cc3)c2)cc1 | 0.07 µM | 
CN(C)Cc1ccc(NC(=O)c2cccc(CNC(=O)Nc3ccc(C(N)=O)c(Cl)c3)c2)cc1 | 0.074 µM | 
CN(C)Cc1ccc(NC(=O)c2cccc(CNC(=O)Nc3cccc(C(N)=O)c3)c2)cc1 | 0.24 µM | 
CN(C)Cc1ccc(NC(=O)c2cccc(CNC(=O)Nc3ccc(C(N)=O)cc3)c2)cc1 | 0.008 µM | 

The next lines start with the values.

IC50 | Kd | Compound
0.037 µM |  | COc1ccc(NC(=O)Cc2cccc(NC(=O)CCC3CCCNC3)c2)cc1OC (stereo unspecified)
0.685 µM |  | COc1ccc(C(=O)NCc2cccc(C(=O)Nc3ccc4cnccc4c3)c2)cc1OC
0.1 µM |  | COc1ccc(C(=O)NCc2cccc(C(=O)Nc3ccc4c(c3)CCNC4)c2)cc1OC
0.266 µM |  | COc1ccc(C(=O)NCc2cccc(C(=O)Nc3ccc(CN(C)C)cc3)c2)cc1C
 | 0.007 µM | COc1ccc(C(=O)NCc2cccc(C(=O)Nc3ccc4c(c3)CNCC4)c2)cc1OC
 | 0.018 µM | COc1ccc(C(=O)NCc2cccc(C(=O)NCCC3CCCNC3)c2)cc1OC (stereo unspecified)
0.16 µM |  | COc1ccc(C(=O)NCc2cccc(C(=O)Nc3ccc(CN(C)C)cc3)c2)cc1C(F)(F)F
0.065 µM |  | N#Cc1ccc(NC(=O)NCc2cccc(C(=O)NCCC3CCNCC3)c2)cc1
3.2 µM |  | COc1ccc(CC(=O)Nc2cccc(C(=O)NCCC3CCCNC3)c2)cc1OC (stereo unspecified)
1.6 µM |  | COc1ccc(NC(=O)NCc2cccc(C(=O)NCCC3CCCNC3)c2)cc1OC (stereo unspecified)
